Measurements reported in patent US10799501B2, “Combination of an inhibitor of PARP with an inhibitor of GSK-3 or DOT1L” (King's College London, priority 2015, dated 2020).

Experiments:
[1] = system: MLL-AF9 leukemic cells (wild type); assay: C57Bl/6 mice transplanted with wild type MLL-AF9 leukemic cells, Olaparib treatment; format: in vivo, mouse; details: Olaparib 50 mg/kg daily
Method: For Hoxa9 KO studies, we intravenously injected […] MLL-AF9 leukemic cells (wild type or Hoxa9−/− background) together with 2×10^5 bone marrow rescue cells into lethally irradiated C57Bl/6 mice (2 doses of irradiation 550 RADS each) for disease development. For drug studies, the control cohort received vehicle (10% 2-Hydroxpropyl-beta-cyclodextrin, HBC, Sigma-Aldrich) and the PARPi treatment group received daily Olaparib 50 mg/kg in 10% HBC for two-four weeks.

[2] = system: PML-RARα transformed cells; assay: In vitro drug treatment of primary murine hematopoietic cells transformed by PML-RARα (RTTA); format: cell-based, mouse
Method: Transduction using concentrated viral supernatant expressing the oncogene of interest was carried out by centrifugation (spinoculation) at 800 g at 32° C. for 2 hours in the presence of 5 μg ml^-1 polybrene (Sigma-Aldrich). Cells were subsequently plated in 1% methylcellulose medium ([…]; Stem Cell Technologies) containing 20 ngml^-1 SCF, 10 ngml^-1 IL-3, 10 ngml^-1 IL-6 and 10 ngml^-1 granulocyte macrophage colony-stimulating factor (GM-CSF) and appropriate selection antibiotic. Colonies were counted after 7 days of culture and replated every 6-7 days at 5×103-1.5×10^4 cell density. Re-plating was performed weekly to generate primary cell lines for further analysis. After the third or fourth round of plating, cells were cultured in R20/20 medium (RPMI 1640, 20% FCS, 20% WEHI-conditioned medium, 2 mM L-glutamine, 100 U/ml penicillin, and 100 μg/ml streptomycin) supplemented with 20 ngml^-1 stem cell factor (SCF), 10 ngml^-1 interleukin (IL)-3, and 10 ngml^-1 IL-6 to establish cell lines. All recombinant murine cytokines were from PeprotechEC. […] Colonies were scored 6-7 days after plating. For other in vitro studies, mouse leukemic cells and primary AML cell lines were subjected to continuously Olaparib (1 μM) or LiCl (8 mM) treatment in liquid culture for whole duration as indicated in the figures or figure legends. For human leukemic cell lines, experiments were performed as described above with 5 μM Olaparib. For each assay 1×10^5 cells were collected, washed in PBS and re-suspended in Annexin V binding solution (25 mM Hepes, 140 mM KCl, 2.5 mM CaCl2 pH 7.2). After centrifugation at 500 g for five minutes the cells were incubated with the Annexin V Binding solution containing 0.25 ug/ml mouse anti Annexin V-FITC antibody (Biolegend 640906) and 1 ug/ml propidium iodide in the dark for 30 minutes at 4° C. Samples were then washed in PBS analysed at the FACS LSRII (BD Biosciences Pharmingen) with FACS Diva. Cells were cytospun onto a glass slide at 400 g for 5 minutes and then fixed for 10 minutes with 2% formaldehyde/0.2% glutaraldehyde (Sigma Aldrich). Cells were then washed with PBS, and then incubated at 37° C. for at least 2 hours with a staining solution (30 mM Citric Acid/Phosphate buffer, 5 mM K4Fe(CN)6, 5 mM K3Fe(CN)6, 150 mM NaCl, 2 mM MgCl2, 1 mg/ml X-Gal) (All reagents from Sigma-Aldrich)62. Cells were counted in at least 5 fields for each slide, for a total of over 100 cells. The percentage of senescent cells was calculated by the percentage of the number of blue cell in the field. Cells were cytospun onto a glass slide at 400 g for 5 minutes and then fixed for 30 minutes in 4% PFA and permeabilized and blocked in 0.8% Tx-100, 10% FBS/1% BSA (Sigma-Aldrich) in PBS for 15 min at room temperature. Mouse anti mouse γH2AX ([…]) (Upstate clone JBW301#05-636) and rabbit anti mouse RAD51 (Santa Cruz Biotecnology […]# sc-8349) were diluted in TBS containing 10% FBS/1% BSA and incubated overnight at 4C. […] Slides were then washed five times at 10 min each with PBS. Slides were briefly washed in water and air-dried prior to mounting with Mowiol-DABCO and a coverslip. Cells were counted in at least 5 fields for each slide, for a total of over 100 cells per condition. 1×10^5 cells were cytospun for 5 min at 300 g onto glass slides. Slides were then stained with May-Grunwald solution (Sigma-Aldrich) for 3 min at room temperature. After washing in water, they were incubated for 20 min in Giemsa solution (Sigma-Aldrich) (1:20 in water). Slides were washed again in water before being mounted with Mowiol. Cells were counted in at least 5 fields for each slide, for a total of over 100 cells per condition. NBT reduction assay were performed to determine myeloid differentiation. 0.1% of NBT (final concentration) was added to the liquid culture or semi-solid methocult and incubated at 37° C. CO2 incubator for 3 hrs and 12 hrs, respectively. […]

MLL pre-LSC = assay: Colony formation of MLL pre-LSC with PARPi, LiCl or combination; format: cell-based, mouse; details: seven days; 8 mM LiCl, 1 μM Olaparib
Method: (§1) Colonies were scored 6-7 days after plating. For other in vitro studies, mouse leukemic cells and primary AML cell lines were subjected to continuously Olaparib (1 μM) or LiCl (8 mM) treatment in liquid culture for whole duration as indicated in the figures or figure legends. For human leukemic cell lines, experiments were performed as described above with 5 μM Olaparib. 1×10^5 cells were cytospun for 5 min at 300 g onto glass slides. Slides were then stained with May-Grunwald solution (Sigma-Aldrich) for 3 min at room temperature. After washing in water, they were incubated for 20 min in Giemsa solution (Sigma-Aldrich) (1:20 in water). Slides were washed again in water before being mounted with Mowiol. Cells were counted in at least 5 fields for each slide, for a total of over 100 cells per condition. NBT reduction assay were performed to determine myeloid differentiation. 0.1% of NBT (final concentration) was added to the liquid culture or semi-solid methocult and incubated at 37° C. CO2 incubator for 3 hrs and 12 hrs, respectively. Cells were then washed in PBS and the differentiated cells were indicated by the deposition of dark blue insoluble formazan (NBT positive cells) and the percentage of differentiated cells were counted under microscopy. At least 200 cells were counted in most of the cases.

MLL LSC = assay: Colony formation and differentiation of MLL LSC with PARPi, LiCl or combination; format: cell-based, mouse; details: seven days; 8 mM LiCl, 1 μM Olaparib
Method: as §1

[3] = C57Bl6 mice succumbed with MLL-AF9 wild-type driven leukemia

O=C(c1cc(Cc2n[nH]c(=O)c3ccccc23)ccc1F)N1CCN(C(=O)C2CC2)CC1 [Olaparib, 4-[(3-[(4-cyclopropylcarbonyl)piperazin-4-yl]carbonyl)-4-fluorophenyl]methyl(2H)-phthalazin-1-one]
BM Engraftment (%) [1, 3]: 93.30 ± 9.257%
Disease Latency (days; median) [1, 3]: 34 days
Hematopoietic Liver Engraftment (%) [1, 3]: 93.16 ± 6.838%
Hematopoietic Spleen Engraftment (%) [1, 3]: 86.85 ± 13.12%
Liver [1, 3]: 4.204 ± 1.425 g
Spleen [1, 3]: 0.9309 ± 0.3767 g
effect on mice transplanted with wild type MLL-AF9 leukemic cells (survival) [1]: did not have any significant effect
suppression of colony forming ability ([2]; 1 uM Olaparib, methylcellulose 7 days, p<0.001): about 90%
apoptosis (Annexin V/PI) ([2]; PARPi 24 hrs and 48 hrs): induced apoptosis
senescence (β-galactosidase staining) ([2]; PARPi 24 hrs and 48 hrs): underwent significant senescence
Rad51 recruitment to DNA damage sites (RAD51 foci) ([2]; PARPi treatment for 6 hours): no significant Rad51 recruitment
percentage of differentiation (morphology and NBT reduction) ([2]; time course PARPi treatment): significantly increased the percentage of differentiation
cells with γH2AX and Rad51 foci ratio greater than 2 ([2]; upon PARPi treatment): around 80%
colony forming ability / growth inhibition (MLL pre-LSC): non-effective
colony forming ability / leukemic cell growth (MLL LSC): ineffective
